Test results from US10377753B2, “Substituted 4-azaindoles and their use as GluN2B receptor modulators” (Janssen Pharmaceutica NV, priority 2015, dated 2019).

Target: cloned human NR1/NR2B ion channels (Homo sapiens (Human), UniProt Q05586+Q13224)
Test: HNR2BC: effects of test articles on cloned human NR1/NR2B ion channels expressed in mammalian cells (FLIPR calcium flux)
Format: cell-based
Details: cloned human NR1/NR2B ion channels, Table 5
Procedure, shortened: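 Compounds were added to dye-loaded cells for 5 min with fluorescence monitored for agonism, followed by co-agonists (glutamate ~EC80, glycine 10 μM saturating) for 5 min. Cells stably expressed inducible human NR1/NR2B, and the buffer was pH 7.4. The FLIPR Ca2+ flux signal was normalized against control wells.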

Sequence of cloned human NR1/NR2B ion channels (Q13224 27-1484, other chains not shown): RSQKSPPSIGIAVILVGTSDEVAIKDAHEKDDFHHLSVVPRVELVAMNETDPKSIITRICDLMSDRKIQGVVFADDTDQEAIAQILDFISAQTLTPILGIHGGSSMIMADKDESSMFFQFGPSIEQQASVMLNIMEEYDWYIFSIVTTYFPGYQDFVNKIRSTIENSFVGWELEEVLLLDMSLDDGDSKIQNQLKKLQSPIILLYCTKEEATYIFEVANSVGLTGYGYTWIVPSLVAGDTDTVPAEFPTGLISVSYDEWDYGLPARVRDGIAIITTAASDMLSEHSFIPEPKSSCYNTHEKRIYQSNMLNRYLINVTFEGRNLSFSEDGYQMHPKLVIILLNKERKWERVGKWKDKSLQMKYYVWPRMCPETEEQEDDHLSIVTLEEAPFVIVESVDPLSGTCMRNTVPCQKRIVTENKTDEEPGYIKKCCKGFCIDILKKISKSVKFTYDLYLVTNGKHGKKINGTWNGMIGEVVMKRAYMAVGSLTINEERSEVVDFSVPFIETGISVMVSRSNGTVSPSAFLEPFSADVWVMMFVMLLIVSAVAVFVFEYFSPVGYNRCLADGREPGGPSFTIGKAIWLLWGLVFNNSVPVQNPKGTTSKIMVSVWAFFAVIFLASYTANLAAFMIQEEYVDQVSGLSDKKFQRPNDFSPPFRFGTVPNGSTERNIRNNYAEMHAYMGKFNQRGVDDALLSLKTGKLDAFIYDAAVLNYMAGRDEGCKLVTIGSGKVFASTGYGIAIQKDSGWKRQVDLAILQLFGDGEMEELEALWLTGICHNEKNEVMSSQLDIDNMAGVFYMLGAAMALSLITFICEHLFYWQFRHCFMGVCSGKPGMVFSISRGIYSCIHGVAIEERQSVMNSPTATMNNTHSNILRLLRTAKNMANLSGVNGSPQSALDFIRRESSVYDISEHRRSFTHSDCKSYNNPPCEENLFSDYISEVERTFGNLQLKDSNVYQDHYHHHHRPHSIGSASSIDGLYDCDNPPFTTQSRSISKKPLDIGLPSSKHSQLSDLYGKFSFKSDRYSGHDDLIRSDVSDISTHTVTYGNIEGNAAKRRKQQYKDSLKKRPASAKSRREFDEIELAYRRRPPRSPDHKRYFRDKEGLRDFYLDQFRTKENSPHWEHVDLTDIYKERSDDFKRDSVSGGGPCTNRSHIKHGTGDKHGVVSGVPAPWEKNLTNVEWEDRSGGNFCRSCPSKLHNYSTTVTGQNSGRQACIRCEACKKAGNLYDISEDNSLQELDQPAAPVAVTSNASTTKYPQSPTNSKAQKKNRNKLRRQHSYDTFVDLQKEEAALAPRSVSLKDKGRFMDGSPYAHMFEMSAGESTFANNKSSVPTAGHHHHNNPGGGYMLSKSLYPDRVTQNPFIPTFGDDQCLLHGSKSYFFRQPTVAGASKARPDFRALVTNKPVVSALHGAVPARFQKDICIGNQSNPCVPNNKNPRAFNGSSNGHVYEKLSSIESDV

Row | IC50 [nM] | SMILES
1 | 158 | Cc1cn(CC(=O)N2CC(F)C2)c2cc(-c3ccc(Cl)s3)cnc12 [Example 636, 2-[6-(5-Chloro-2-thienyl)-3-methyl-pyrrolo[3,2-b]pyridin-1-yl]-1-(3-fluoroazetidin-1-yl)ethanone]
2 | 316 | Cc1ccc(-c2cnc3c(C)cn(CC(=O)N(C)C)c3c2)s1 [Example 637, N,N-Dimethyl-2-[3-methyl-6-(5-methyl-2-thienyl)pyrrolo[3,2-b]pyridin-1-yl]acetamide]
3 | 126 | Cc1cn(CC(=O)N2CC(F)C2)c2cc(-c3ccccc3F)cnc12 [Example 638, 1-(3-Fluoroazetidin-1-yl)-2-[6-(2-fluorophenyl)-3-methyl-pyrrolo[3,2-b]pyridin-1-yl]ethanone]
4 | 200 | CN(C)C(=O)Cn1ccc2ncc(-c3ccc(C(F)F)s3)cc21 [Example 639, 2-[6-[5-(Difluoromethyl)-2-thienyl]pyrrolo[3,2-b]pyridin-1-yl]-N,N-dimethyl-acetamide]
